{"source": "paper doi:10.1101/2021.07.09.451751v1", "about": "“Identification of general acid catalyst for the ATPase activity of Lynch syndrome-related MutL homologs” (biorxiv, 2021)", "key": {"aqMutL NTD [1]": {"target": "T1, aqMutL NTD (Aquifex aeolicus, UniProt O67518, K79A)", "T1 construct": "gene mutL; recombinant from E. coli", "T1 sequence (O67518 1-319 K79A limits assumed)": "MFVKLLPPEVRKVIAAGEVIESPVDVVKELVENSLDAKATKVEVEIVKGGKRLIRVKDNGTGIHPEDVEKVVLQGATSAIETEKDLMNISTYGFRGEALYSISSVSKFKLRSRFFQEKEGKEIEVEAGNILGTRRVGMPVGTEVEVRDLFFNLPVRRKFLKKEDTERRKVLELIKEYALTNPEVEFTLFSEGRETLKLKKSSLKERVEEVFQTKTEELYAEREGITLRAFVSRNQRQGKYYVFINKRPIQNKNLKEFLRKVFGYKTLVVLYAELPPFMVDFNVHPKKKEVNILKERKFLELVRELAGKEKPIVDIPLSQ", "assay": "equilibrium dialysis", "type": "binding"}, "aqMutL NTD [2]": {"target": "T2, aqMutL NTD (Aquifex aeolicus, UniProt O67518)", "T2 construct": "gene mutL; recombinant from E. coli", "T2 sequence (O67518 1-319 limits assumed)": "T1 sequence (O67518 1-319 K79A limits assumed) with A79K", "assay": "equilibrium dialysis", "type": "binding"}}, "note": "Where a chain is given by its changes, count along the chain named."}
{"smiles": "Nc1ncnc2c1ncn2[C@@H]1O[C@H](COP(=O)(O)OP(=O)(O)NP(=O)(O)O)[C@@H](O)[C@H]1O", "note": "[AMPPNP]", "values": [{"measurement": "Kd", "setting": "aqMutL NTD [1]", "value": 340, "unit": "µM"}, {"measurement": "Kd", "setting": "aqMutL NTD [2]", "value": 300, "unit": "µM"}]}
